Residues, ends and D or L forms follow the SMILES beside them. *: point of attachment. CH2CO2tBu = CC(C)(C)OC(=O)C*; Carboxymethyl = O=C(O)C*; Allyl = C=CC*; X1 = CCCCCCS*; SEt = CCS*
What was measured:
HaCaT cells [1] = assay: Cell proliferation experiment (MTT), HaCaT; type: cell-based, human; conditions: 24 hours
Text: (§1) Human keratinocytes (HaCaT) were purchased from the Kunming Cell Bank of the Type Culture Collection Committee of the Chinese Academy of Sciences, and mouse skin fibroblasts (NIH3T3) were purchased from the Shanghai Cell Bank of the Type Culture Collection Committee of the Chinese Academy of Sciences.
(§2) • a) Take cells in good condition in exponential growth phase, add 0.25% trypsin digestion solution, digest to make adherent cells fall off, count 1-4×10^5 cells/mL, and make cell suspension; • b) Appropriately dilute 2000 cells/well of the cell suspension and inoculate it on a 96-well plate at 200 μL/well, and culture it in a constant temperature CO2 incubator for 24 hours. • c) Change the medium, add the sample to be tested, 20 μL/well, and incubate for 24 hours; • d) Add the MTT reagent into the 96-well plate, 20 μL/well, and react in the incubator for 4 hours; • e) Aspirate the supernatant, add DMSO, 150 μL/well, and shake on a plate shaker for 5 minutes; • f) After 5 minutes, use a microplate reader to read the reference OD values at 490 nm and 630 nm wavelengths, and calculate the cell viability:
(§3) MTT method is a method to detect cell survival and growth. The measured OD value is directly proportional to cell activity. The larger the OD value, the higher the cell activity.

NIH3T3 cells = assay: Cell proliferation experiment (MTT), NIH3T3; type: cell-based, mouse; conditions: 24 hours
Text: as §1, §2, §3

HaCaT cells [2] = assay: UVB light damage repair experiment (MTT), HaCaT; type: cell-based, human; conditions: UVB irradiated, 12.5-100 ppm, 24 hours
Method: as §1
Take cells in good exponential growth phase, add 0.25% trypsin digestion solution, digest to make adherent cells fall off, count 1×10^5-4×10^5 cells/mL, and make cell suspension.
Cells were seeded into 96-well plates at 10,000 cells/well, and the UVB photodamage model was established when the cells reached about 80% confluent. […]
After 24 hours, add 22 μL of 5 mg/mL MTT to each well, place in an incubator and incubate for 4 hours, discard the original solution, and add 150 μL/well of DMSO. After 5 minutes, use a microplate reader to read the reference OD values at 490 nm and 630 nm wavelengths.
By establishing a UVB light-damaged cell model, administering 24 hours after ultraviolet light irradiation, and using the MTT method to detect cell proliferation activity, the ability of the peptide of the present invention to repair light-damaged cells was evaluated.

[3] = Stability of powders under high humidity (HPLC purity); type: physicochemical; conditions: powder; for High humidity, Day 10 (purity): RH92.5%, 25° C., 10 days
Method: The powder samples of peptides (3)-(7) were placed under high humidity (RH92.5%, 25° C.) conditions for 10 days, and the purity changes of each sample were investigated by HPLC.

[4] = Stability of aqueous solutions (HPLC purity over time); type: physicochemical
Method: (§4) In Example 29, the HPLC chromatographic separation conditions were as follows: • Chromatographic column: Octadecyl bonded silica gel as filler 4.6*250 mm, 5 m • Mobile phase A: Acetonitrile (containing 0.09% trifluoroacetic acid) • Mobile phase B: 0.1% trifluoroacetic acid • Diluent: water • Flow rate: 1.0 ml/min; • Column temperature: 35° C.; • Detection wavelength: 215 nm; • Injection volume: 10 μl; • Running time: 32 min • Gradient elution table:
(§5) The test solution: Take an appropriate amount of this product and add water to dissolve and dilute to make a solution containing 1 mg per 1 ml.

[5] = Stability of powders at 25° C. and 40° C. (HPLC purity over time)
Method: as §4, §5

HaCaT cells [6] = assay: Scratch test (cell migration); type: cell-based, human; conditions: 24 hours after scratch; peptides 100 ppm, EGF 50 U/mL; vs normal control group
Method: Human keratinocytes (HaCaT) were purchased from the Kunming Cell Bank of the Type Culture Collection Committee of the Chinese Academy of Sciences.
The cryopreserved HaCaT cells were cultured, subcultured to about 5 passages according to the ratio of 1:2, and the cells with better growth were selected as the experimental objects. Cells were seeded in a 12-well plate at a density of 200,000 cells/well, with 2 mL of cell suspension in each well. After the cells adhered to the wall, the medium was replaced with 0.5% to 1% fetal bovine serum to maintain the cells for 24 hours to synchronize them. change. Scratch with a sterilized pipette tip, wash off the dropped cells with PBS, add the sample to be tested, continue to incubate in a 37° C., 5% CO2 incubator, and place it under an optical microscope after 24 hours to analyze the wound healing area.
The cell scratch migration test can reflect the proliferation and repair ability of the cells.

[7] = 12.5 ppm-100 ppm, vs PBS blank control

C=CCSCC(NC(=O)C(NC(=O)CNC(=O)C(CCSC)NC(=O)C(CCCNC(=N)N)NC(=O)C(Cc1ccccc1)NC(=O)C1CCCN1C(=O)C(C)N)C(C)CC)C(=O)NC(C(=O)NC(C(=O)NC(CC(N)=O)C(=O)O)C(C)O)C(C)O (stereo not shown) [Peptide (3)] (H-APFRMGIC(Allyl)TTN-OH; configuration not given here)
impact on the activity of HaCaT cells compared among peptides (1)-(5) (HaCaT cells [1]; 12.5-100 ppm): greater impact on the activity of HaCaT cells | effect on the activity of HaCaT cells (MTT) (HaCaT cells [1]; [7]): could both improve the activity of HaCaT cells, promote their proliferation | impact on the activity of NIH3T3 cells compared among peptides (1)-(5) (NIH3T3 cells; 12.5-100 ppm): greater impact on the activity of NIH3T3 cells | effect on the activity of NIH3T3 cells (MTT) (NIH3T3 cells; [7]): could improve the activity of NIH3T3 cells and promote their proliferation | effect on improving activity of photodamaged HaCaT cells compared among peptides (1)-(5) (HaCaT cells [2]): better effect on improving cell activity | Day 0 (purity) [3]: 97.605% | High humidity, Day 10 (purity) [3]: 96.251%

CCC(C)C(NC(=O)CNC(=O)C(CCSC)NC(=O)C(CCCNC(=N)N)NC(=O)C(Cc1ccccc1)NC(=O)C1CCCN1C(=O)C(C)N)C(=O)NC(CSCC(=O)O)C(=O)NC(C(=O)NC(C(=O)NC(CC(N)=O)C(=O)O)C(C)O)C(C)O (stereo not shown) [(7)] (H-APFRMGIC(Carboxymethyl)TTN-OH; configuration not given here)
Day 0 (purity) [3]: 98.541% | High humidity, Day 10 (purity) [3]: 97.863%

CCSSCC(NC(=O)C(NC(=O)CNC(=O)C(CCSC)NC(=O)C(CCCNC(=N)N)NC(=O)C(Cc1ccccc1)NC(=O)C1CCCN1C(=O)C(C)N)C(C)CC)C(=O)NC(C(=O)NC(C(=O)NC(CC(N)=O)C(=O)O)C(C)O)C(C)O (stereo not shown) [(5)] (H-APFRMGIC(SEt)TTN-OH; configuration not given here)
Day 0 (purity) [3]: 97.482% | High humidity, Day 10 (purity) [3]: 94.603%

H-Ala-Pro-Phe-Arg-Met-Gly-Ile-Cys-Thr-Thr-Asn-OH (H-APFRMGICTTN-OH) [Reference peptide A]
aqueous solution (purity) ([4]; Day 8 at room temperature): 80.880% | aqueous solution (purity) ([4]; Day 18 at room temperature): 72.693% | aqueous solution (purity) ([4]; Day 18 at room temperature, listed as reference peptide A): 72.693% | aqueous solution (purity) ([4]; Solution, Day 0): 88.030% | aqueous solution (purity) ([4]; Solution, Day 0, listed as reference peptide A): decreased significantly | powder (purity) ([5]; 25° C., Day 5): 85.913% | powder (purity) ([5]; 40° C., Day 5): 57.503% | powder (purity) ([5]; 40° C., Day 5, listed as reference peptide A): 57.503% | powder (purity) ([5]; powder, Day 0): 88.030%

CCC(C)C(NC(=O)CNC(=O)C(CCSC)NC(=O)C(CCCNC(=N)N)NC(=O)C(Cc1ccccc1)NC(=O)C1CCCN1C(=O)C(C)N)C(=O)NC(CSCC(=O)OC(C)(C)C)C(=O)NC(C(=O)NC(C(=O)NC(CC(N)=O)C(=O)O)C(C)O)C(C)O (stereo not shown) [(4)] (H-APFRMGIC(CH2CO2tBu)TTN-OH; configuration not given here)
Day 0 (purity) [3]: 96.017% | High humidity, Day 10 (purity) [3]: 93.962%

EGF: epidermal growth factor (EGF), 50 U/mL, positive group in the scratch test
scratch spacing (proliferation and migration) (HaCaT cells [6]): spacing was significantly shortened

CCCCCCSSCC(NC(=O)C(NC(=O)CNC(=O)C(CCSC)NC(=O)C(CCCNC(=N)N)NC(=O)C(Cc1ccccc1)NC(=O)C1CCCN1C(=O)C(C)N)C(C)CC)C(=O)NC(C(=O)NC(C(=O)NC(CC(N)=O)C(=O)O)C(C)O)C(C)O (stereo not shown) [(6)] (H-APFRMGIC(X1)TTN-OH; configuration not given here)
Day 0 (purity) [3]: 96.235% | High humidity, Day 10 (purity) [3]: 95.719%

— patent US20240352069A1, “SYNTHETIC PEPTIDE, AND COSMETIC COMPOSITION OR PHARMACEUTICAL COMPOSITION AND APPLICATION THEREOF” (SHENZHEN WINKEY TECHNOLOGY CO., LTD., priority 2021, published 2024)
